Columns and labels:
[1] = molecular target: T1, Cholecystokinin receptor type A (Homo sapiens, UniProt P32238)
T1 sequence (P32238 whole entry): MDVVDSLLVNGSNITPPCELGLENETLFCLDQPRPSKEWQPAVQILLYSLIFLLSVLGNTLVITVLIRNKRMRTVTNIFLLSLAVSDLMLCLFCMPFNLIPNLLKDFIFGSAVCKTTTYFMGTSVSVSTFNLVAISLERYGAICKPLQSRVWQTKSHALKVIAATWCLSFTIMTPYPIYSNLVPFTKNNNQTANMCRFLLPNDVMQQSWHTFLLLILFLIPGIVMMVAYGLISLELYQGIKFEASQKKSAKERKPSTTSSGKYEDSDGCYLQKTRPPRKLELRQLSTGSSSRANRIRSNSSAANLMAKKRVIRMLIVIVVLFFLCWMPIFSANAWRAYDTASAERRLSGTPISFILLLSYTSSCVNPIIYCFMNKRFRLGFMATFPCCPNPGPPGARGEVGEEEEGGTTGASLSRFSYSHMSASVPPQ

[2] = molecular target: Glutamate receptor ionotropic, NMDA 1 (Rattus norvegicus, UniProt P35439)
[3] = molecular target: D(1A) dopamine receptor (Homo sapiens, UniProt P21728); format: functional, cell-based
[4] = molecular target: T2, 5-hydroxytryptamine receptor 1A (Homo sapiens, UniProt P08908); format: functional, cell-based
T2 sequence (P08908 whole entry): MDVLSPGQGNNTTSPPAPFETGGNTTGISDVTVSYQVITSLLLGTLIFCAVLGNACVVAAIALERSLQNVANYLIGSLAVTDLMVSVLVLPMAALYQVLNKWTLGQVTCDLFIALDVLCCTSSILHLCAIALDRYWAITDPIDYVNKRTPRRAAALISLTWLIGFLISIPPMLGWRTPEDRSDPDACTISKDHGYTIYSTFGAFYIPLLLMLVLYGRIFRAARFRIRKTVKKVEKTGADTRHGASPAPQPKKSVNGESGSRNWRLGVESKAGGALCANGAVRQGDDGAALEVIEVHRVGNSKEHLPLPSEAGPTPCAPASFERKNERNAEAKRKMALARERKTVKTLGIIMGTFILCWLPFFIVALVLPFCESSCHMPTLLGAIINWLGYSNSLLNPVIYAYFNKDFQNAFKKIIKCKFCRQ

[5] = molecular target: T3, Progesterone receptor (Homo sapiens, UniProt P06401); format: functional
T3 sequence (P06401 whole entry): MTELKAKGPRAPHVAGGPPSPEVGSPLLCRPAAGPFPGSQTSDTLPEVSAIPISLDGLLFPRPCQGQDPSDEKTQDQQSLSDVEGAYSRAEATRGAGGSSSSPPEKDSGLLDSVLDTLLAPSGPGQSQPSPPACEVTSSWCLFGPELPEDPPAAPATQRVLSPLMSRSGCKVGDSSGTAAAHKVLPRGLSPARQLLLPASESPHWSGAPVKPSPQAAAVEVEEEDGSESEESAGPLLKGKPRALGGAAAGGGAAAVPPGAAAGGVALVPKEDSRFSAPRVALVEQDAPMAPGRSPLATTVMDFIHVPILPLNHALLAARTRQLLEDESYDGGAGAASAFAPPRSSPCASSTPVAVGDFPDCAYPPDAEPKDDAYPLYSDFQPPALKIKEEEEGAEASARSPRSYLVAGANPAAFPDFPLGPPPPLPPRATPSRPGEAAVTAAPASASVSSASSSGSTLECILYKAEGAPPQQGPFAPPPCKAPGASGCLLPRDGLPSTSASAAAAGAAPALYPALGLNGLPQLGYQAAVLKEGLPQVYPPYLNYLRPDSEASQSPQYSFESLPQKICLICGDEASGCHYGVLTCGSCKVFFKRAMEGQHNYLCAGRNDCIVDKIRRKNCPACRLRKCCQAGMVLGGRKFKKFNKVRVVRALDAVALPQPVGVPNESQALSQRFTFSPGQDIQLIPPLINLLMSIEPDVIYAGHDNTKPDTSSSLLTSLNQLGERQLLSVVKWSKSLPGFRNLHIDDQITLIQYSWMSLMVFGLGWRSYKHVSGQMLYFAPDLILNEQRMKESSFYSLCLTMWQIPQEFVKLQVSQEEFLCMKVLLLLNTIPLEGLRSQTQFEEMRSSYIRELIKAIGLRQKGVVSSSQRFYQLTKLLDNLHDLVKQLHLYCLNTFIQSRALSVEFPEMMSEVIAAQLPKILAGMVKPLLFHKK

[6] = molecular target: Motilin receptor (Homo sapiens, UniProt O43193)
[7] = molecular target: 5-hydroxytryptamine receptor 2B (Homo sapiens, UniProt P41595); format: functional, cell-based
[8] = molecular target: Vasopressin V2 receptor (Homo sapiens, UniProt P30518)
[9] = molecular target: Gamma-aminobutyric acid receptor subunit alpha-1 (Rattus norvegicus, UniProt P62813); format: functional
[10] = molecular target: Growth hormone secretagogue receptor type 1 (Homo sapiens, UniProt Q92847)
[11] = molecular target: T4, 5-hydroxytryptamine receptor 2C (Homo sapiens, UniProt P28335)
T4 sequence (P28335 whole entry): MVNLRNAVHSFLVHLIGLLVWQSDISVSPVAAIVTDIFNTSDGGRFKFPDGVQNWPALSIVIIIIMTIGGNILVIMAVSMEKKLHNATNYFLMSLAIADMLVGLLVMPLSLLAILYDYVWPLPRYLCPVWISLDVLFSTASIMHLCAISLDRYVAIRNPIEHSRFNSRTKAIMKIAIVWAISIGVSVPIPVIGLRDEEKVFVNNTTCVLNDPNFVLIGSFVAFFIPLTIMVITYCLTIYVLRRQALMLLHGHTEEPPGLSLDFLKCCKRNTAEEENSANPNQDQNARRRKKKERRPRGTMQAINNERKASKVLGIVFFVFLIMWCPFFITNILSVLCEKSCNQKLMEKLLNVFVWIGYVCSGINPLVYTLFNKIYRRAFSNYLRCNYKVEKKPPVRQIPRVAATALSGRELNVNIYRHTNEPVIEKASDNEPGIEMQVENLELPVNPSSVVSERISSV
Note: assay procedure not described here.

Sequence of Growth hormone secretagogue receptor type 1 (Q92847 whole entry): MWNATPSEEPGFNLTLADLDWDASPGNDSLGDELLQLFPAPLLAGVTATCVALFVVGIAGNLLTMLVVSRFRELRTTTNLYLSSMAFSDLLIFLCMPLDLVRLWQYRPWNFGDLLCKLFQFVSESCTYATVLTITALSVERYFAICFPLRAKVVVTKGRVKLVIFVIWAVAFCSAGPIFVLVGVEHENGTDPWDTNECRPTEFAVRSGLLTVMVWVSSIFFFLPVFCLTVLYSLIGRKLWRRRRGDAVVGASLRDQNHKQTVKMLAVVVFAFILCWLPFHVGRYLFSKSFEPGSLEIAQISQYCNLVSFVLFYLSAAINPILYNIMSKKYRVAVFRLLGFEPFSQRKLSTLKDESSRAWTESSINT
Sequence of 5-hydroxytryptamine receptor 2B (P41595 whole entry): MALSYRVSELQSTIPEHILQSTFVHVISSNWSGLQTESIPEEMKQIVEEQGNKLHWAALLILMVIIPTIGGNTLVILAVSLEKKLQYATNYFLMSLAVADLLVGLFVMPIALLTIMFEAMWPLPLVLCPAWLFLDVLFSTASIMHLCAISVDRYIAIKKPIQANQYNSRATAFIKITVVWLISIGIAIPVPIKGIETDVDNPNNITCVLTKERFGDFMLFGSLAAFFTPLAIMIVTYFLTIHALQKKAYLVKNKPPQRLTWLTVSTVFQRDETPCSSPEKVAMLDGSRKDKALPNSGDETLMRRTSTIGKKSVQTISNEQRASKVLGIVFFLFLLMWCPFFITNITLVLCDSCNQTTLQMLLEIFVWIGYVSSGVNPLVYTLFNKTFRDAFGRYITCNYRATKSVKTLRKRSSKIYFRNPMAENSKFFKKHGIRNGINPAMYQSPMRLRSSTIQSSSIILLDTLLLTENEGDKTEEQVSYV
Sequence of D(1A) dopamine receptor (P21728 whole entry): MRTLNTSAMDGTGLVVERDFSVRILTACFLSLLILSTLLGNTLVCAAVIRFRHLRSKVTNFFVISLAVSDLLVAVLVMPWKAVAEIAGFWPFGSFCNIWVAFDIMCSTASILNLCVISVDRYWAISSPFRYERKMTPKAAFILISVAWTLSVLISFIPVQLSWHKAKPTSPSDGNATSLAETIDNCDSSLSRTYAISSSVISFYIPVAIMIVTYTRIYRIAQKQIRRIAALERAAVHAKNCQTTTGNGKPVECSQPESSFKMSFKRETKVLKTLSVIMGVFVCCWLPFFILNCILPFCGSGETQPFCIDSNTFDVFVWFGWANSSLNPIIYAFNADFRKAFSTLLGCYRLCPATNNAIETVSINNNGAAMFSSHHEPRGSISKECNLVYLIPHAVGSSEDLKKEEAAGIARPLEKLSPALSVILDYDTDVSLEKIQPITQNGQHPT
Sequence of Motilin receptor (O43193 whole entry): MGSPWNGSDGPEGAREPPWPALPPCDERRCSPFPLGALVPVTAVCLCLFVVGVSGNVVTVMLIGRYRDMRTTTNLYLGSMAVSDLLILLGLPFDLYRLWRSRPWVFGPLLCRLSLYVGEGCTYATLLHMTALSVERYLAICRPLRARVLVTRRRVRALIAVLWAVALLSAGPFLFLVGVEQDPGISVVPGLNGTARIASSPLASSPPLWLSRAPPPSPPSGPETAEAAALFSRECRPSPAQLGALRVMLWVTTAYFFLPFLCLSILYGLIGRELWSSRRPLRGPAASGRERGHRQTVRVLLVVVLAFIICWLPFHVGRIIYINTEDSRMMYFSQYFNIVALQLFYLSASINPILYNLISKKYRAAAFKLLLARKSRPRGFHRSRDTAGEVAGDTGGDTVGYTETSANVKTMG
Sequence of Gamma-aminobutyric acid receptor subunit alpha-1 (P62813 whole entry): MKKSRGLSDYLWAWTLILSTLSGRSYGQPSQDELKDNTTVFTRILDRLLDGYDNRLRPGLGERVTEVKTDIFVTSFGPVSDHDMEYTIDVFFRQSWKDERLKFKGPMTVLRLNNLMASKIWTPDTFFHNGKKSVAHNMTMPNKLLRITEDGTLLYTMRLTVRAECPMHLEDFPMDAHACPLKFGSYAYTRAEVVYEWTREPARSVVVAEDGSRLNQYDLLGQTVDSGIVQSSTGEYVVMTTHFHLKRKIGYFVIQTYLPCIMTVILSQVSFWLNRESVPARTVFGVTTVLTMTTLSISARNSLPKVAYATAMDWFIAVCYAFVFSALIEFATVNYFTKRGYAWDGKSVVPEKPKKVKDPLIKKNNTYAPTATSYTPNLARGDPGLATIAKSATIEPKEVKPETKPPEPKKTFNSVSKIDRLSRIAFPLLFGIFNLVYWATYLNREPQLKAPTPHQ
Sequence of Vasopressin V2 receptor (P30518 whole entry): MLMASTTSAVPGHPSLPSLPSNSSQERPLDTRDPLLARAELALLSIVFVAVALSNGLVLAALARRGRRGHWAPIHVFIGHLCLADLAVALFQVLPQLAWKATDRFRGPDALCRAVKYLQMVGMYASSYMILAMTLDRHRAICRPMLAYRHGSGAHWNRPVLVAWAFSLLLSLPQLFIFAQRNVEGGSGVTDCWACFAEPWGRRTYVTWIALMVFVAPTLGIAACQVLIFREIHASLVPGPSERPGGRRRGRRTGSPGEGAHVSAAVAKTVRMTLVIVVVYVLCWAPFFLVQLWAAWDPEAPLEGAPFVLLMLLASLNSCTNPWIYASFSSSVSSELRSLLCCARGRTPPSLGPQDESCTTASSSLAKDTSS

Brc1c(NC2=NCCN2)ccc2nccnc12 [BRIMONIDINE]
AC50 [1]: > 30 µM
AC50 [2]: > 30 µM
AC50 [3]: > 30 µM
AC50 [4]: 5 µM
AC50 [5]: > 30 µM
AC50 [6]: > 30 µM
AC50 [7]: > 30 µM
AC50 [8]: > 30 µM
AC50 [9]: > 30 µM
AC50 [10]: > 30 µM
AC50 [11]: > 30 µM

NC(=O)CN1CC(O)CC1=O (stereo not given) [OXIRACETAM]
AC50 [1]: > 30 µM
AC50 [2]: > 30 µM
AC50 [3]: > 30 µM
AC50 [4]: > 30 µM
AC50 [5]: > 30 µM
AC50 [6]: > 30 µM
AC50 [7]: > 30 µM
AC50 [8]: > 30 µM
AC50 [9]: > 30 µM
AC50 [10]: > 30 µM
AC50 [11]: > 30 µM

THIMEROSAL
AC50 [3]: > 100 µM
AC50 [7]: > 30 µM

C[C@H]1COc2c(C3(N)CC3)c(F)cc3c(=O)c(C(=O)O)cn1c23 [PAZUFLOXACIN]
AC50 [1]: > 10 µM
AC50 [2]: > 10 µM
AC50 [3]: > 10 µM
AC50 [4]: > 10 µM
AC50 [5]: > 30 µM
AC50 [6]: > 10 µM
AC50 [7]: > 10 µM
AC50 [8]: > 10 µM
AC50 [9]: > 10 µM
AC50 [10]: > 10 µM
AC50 [11]: > 30 µM

NC(=O)OCC(COC(N)=O)c1ccccc1 [FELBAMATE]
AC50 [1]: > 10 µM
AC50 [2]: > 10 µM
AC50 [3]: > 10 µM
AC50 [4]: > 10 µM
AC50 [5]: > 10 µM
AC50 [6]: > 10 µM
AC50 [7]: > 10 µM
AC50 [8]: > 10 µM
AC50 [9]: > 10 µM
AC50 [10]: > 10 µM
AC50 [11]: > 30 µM

Clc1ccccc1C(c1ccccc1)(c1ccccc1)n1ccnc1 [CLOTRIMAZOLE]
AC50 [2]: > 10 µM
AC50 [4]: > 10 µM
AC50 [7]: > 10 µM
AC50 [9]: > 10 µM
AC50 [11]: > 30 µM

CC(C)(C)NCC(O)COc1cccc2c1CCC(=O)N2 (stereo not given) [CARTEOLOL]
AC50 [1]: > 10 µM
AC50 [2]: > 10 µM
AC50 [3]: > 10 µM
AC50 [4]: > 10 µM
AC50 [5]: > 10 µM
AC50 [6]: > 10 µM
AC50 [7]: > 10 µM
AC50 [8]: > 10 µM
AC50 [9]: > 10 µM
AC50 [10]: > 10 µM
AC50 [11]: > 30 µM

CC1(C)CCC(CN2CCN(c3ccc(C(=O)NS(=O)(=O)c4ccc(NCC5CCOCC5)c([N+](=O)[O-])c4)c(Oc4cnc5[nH]ccc5c4)c3)CC2)=C(c2ccc(Cl)cc2)C1 [VENETOCLAX]
AC50 [3]: > 30 µM
AC50 [5]: > 30 µM

O=C1C(O)=C([C@H]2CC[C@H](c3ccc(Cl)cc3)CC2)C(=O)c2ccccc21 [ATOVAQUONE]
AC50 [1]: > 30 µM
AC50 [2]: > 30 µM
AC50 [3]: > 30 µM
AC50 [4]: > 30 µM
AC50 [5]: > 30 µM
AC50 [6]: > 30 µM
AC50 [7]: > 30 µM
AC50 [8]: > 30 µM
AC50 [9]: > 30 µM
AC50 [10]: > 30 µM
AC50 [11]: > 30 µM

Cc1nnc2n1-c1ccc(Cl)cc1C(c1ccccc1Cl)=NC2 [TRIAZOLAM]
AC50 [1]: > 30 µM
AC50 [2]: > 10 µM
AC50 [3]: > 10 µM
AC50 [4]: > 10 µM
AC50 [6]: > 10 µM
AC50 [7]: > 10 µM
AC50 [8]: > 30 µM
AC50 [9]: 0.0011 µM
AC50 [10]: > 30 µM
AC50 [11]: > 30 µM

Nc1nc(Cl)nc2c1ncn2[C@H]1C[C@H](O)[C@@H](CO)O1 [CLADRIBINE]
AC50 [1]: > 30 µM
AC50 [2]: > 30 µM
AC50 [3]: > 30 µM
AC50 [4]: > 30 µM
AC50 [5]: > 30 µM
AC50 [6]: > 30 µM
AC50 [7]: > 30 µM
AC50 [8]: > 30 µM
AC50 [10]: > 30 µM
AC50 [11]: > 30 µM

CC/C(=C(\c1ccccc1)c1ccc(OCCN(C)C)cc1)c1ccccc1 [TAMOXIFEN]
AC50 [2]: > 10 µM
AC50 [4]: > 10 µM
AC50 [7]: > 10 µM
AC50 [9]: > 10 µM
AC50 [11]: 7 µM

CC(CC1c2ccccc2CCc2ccccc21)CN(C)C (stereo not given) [BUTRIPTYLINE]
AC50 [2]: > 30 µM
AC50 [3]: > 30 µM
AC50 [7]: > 30 µM
AC50 [9]: > 30 µM
AC50 [11]: 3 µM

COc1cccc(C2(O)CCCCC2CN(C)C)c1 (stereo not given) [TRAMADOL]
AC50 [1]: > 30 µM
AC50 [2]: > 10 µM
AC50 [3]: > 10 µM
AC50 [4]: > 10 µM
AC50 [6]: > 10 µM
AC50 [7]: > 10 µM
AC50 [8]: > 30 µM
AC50 [9]: > 10 µM
AC50 [10]: > 30 µM
AC50 [11]: > 30 µM

COc1ccc2c3c1O[C@H]1[C@@H](O)CC[C@H]4[C@@H](C2)N(C)CC[C@@]341 [DIHYDROCODEINE]
AC50 [2]: > 30 µM
AC50 [3]: > 30 µM
AC50 [4]: > 30 µM
AC50 [7]: > 30 µM
AC50 [9]: > 30 µM
AC50 [11]: > 10 µM

C#C[C@]1(O)CC[C@H]2[C@@H]3[C@H](C)CC4=C(CCC(=O)C4)[C@H]3CC[C@@]21C [TIBOLONE]
AC50 [1]: > 30 µM
AC50 [2]: > 30 µM
AC50 [3]: > 30 µM
AC50 [4]: > 30 µM
AC50 [6]: > 30 µM
AC50 [7]: > 30 µM
AC50 [8]: > 30 µM
AC50 [9]: 30 µM
AC50 [10]: > 30 µM
AC50 [11]: > 30 µM

Cc1cc(C(C)(C)C)c(O)c(C)c1CC1=NCCN1 [OXYMETAZOLINE]
AC50 [2]: > 30 µM
AC50 [3]: > 30 µM
AC50 [4]: 0.0094 µM
AC50 [5]: > 30 µM
AC50 [7]: 0.266 µM
AC50 [9]: > 30 µM
AC50 [11]: 6.8 µM

Cc1c(OCC(F)(F)F)ccnc1C[S+]([O-])c1nc2ccccc2[nH]1 (stereo not given) [LANSOPRAZOLE]
AC50 [1]: > 30 µM
AC50 [2]: > 10 µM
AC50 [3]: > 10 µM
AC50 [4]: > 10 µM
AC50 [6]: > 10 µM
AC50 [7]: > 10 µM
AC50 [8]: > 30 µM
AC50 [9]: > 10 µM
AC50 [10]: 9.67 µM
AC50 [11]: > 10 µM

COc1ccc(CCNCC(O)COc2cccc(C)c2)cc1OC (stereo not given) [BEVANTOLOL]
AC50 [1]: > 10 µM
AC50 [2]: > 10 µM
AC50 [3]: > 30 µM
AC50 [4]: 1.2 µM
AC50 [5]: > 10 µM
AC50 [6]: > 10 µM
AC50 [7]: > 10 µM
AC50 [8]: > 10 µM
AC50 [9]: > 10 µM
AC50 [10]: > 10 µM
AC50 [11]: > 30 µM

Fc1ccc(C(c2ccccc2)(c2ccccc2F)n2ccnc2)cc1 (stereo not given) [FLUTRIMAZOLE]
AC50 [1]: > 30 µM
AC50 [2]: > 30 µM
AC50 [3]: > 30 µM
AC50 [4]: > 30 µM
AC50 [5]: > 30 µM
AC50 [6]: 27 µM
AC50 [7]: > 30 µM
AC50 [8]: > 30 µM
AC50 [9]: > 30 µM
AC50 [10]: > 30 µM
AC50 [11]: > 30 µM
